Results taken from EPA's ToxRefDB 2.

Columns and labels:
rat [1] = conditions: Combined chronic toxicity/carcinogenicity; fischer; Oral; Feed; dose end: 365 day; group: systemic; systemic / pathology microscopic / liver / hepatocellular carcinoma + systemic / pathology microscopic / testes / adenoma + systemic / in …
mouse [2] = conditions: Combined chronic toxicity/carcinogenicity; other; Oral; Feed; dose end: 365 day; group: systemic; systemic / in life observation / body weight / body weight
mouse [3] = conditions: Combined chronic toxicity/carcinogenicity, b6c3f1, Oral, Gavage/Intubation, dose end: 103 week, group: systemic
rat [4] = conditions: Combined chronic toxicity/carcinogenicity; fischer; Oral; Gavage/Intubation; dose end: 103 week; group: systemic; systemic / hematology / erythrocyte (rbc) count differential / erythrocyte (rbc) + systemic / hematology / hematocrit (hct) / hematocrit (…
mouse [5] = conditions: Subchronic oral toxicity in rodents, b6c3f1, Gavage/Intubation, dose end: 13 week, group: systemic
rat [6] = conditions: Subchronic oral toxicity in rodents, Fischer, Gavage/Intubation, dose end: 13 week, group: systemic, systemic / hematology / erythrocyte (rbc) count differential / erythrocyte (rbc) + systemic / hematology / hematocrit (hct) / hematocrit (…
mouse [7] = conditions: Sub-acute repeat dose toxicity, Oral, Gavage/Intubation, dose end: 28 day
dog [8] = conditions: Chronic toxicity, beagle, Oral, Gavage/Intubation, dose end: 182 day, group: systemic
mouse [9] = conditions: Chronic toxicity, Oral, Gavage/Intubation, dose end: 182 day
mouse [10] = conditions: Sub-acute repeat dose toxicity, Oral, Gavage/Intubation, dose end: 14 day, group: systemic
dog [11] = conditions: Sub-acute repeat dose toxicity, beagle, Oral, Gavage/Intubation, dose end: 28 day, group: systemic
mouse [12] = conditions: Sub-acute repeat dose toxicity, Oral, Gavage/Intubation, dose end: 28 day; remark: listed apart in the source
dog [13] = conditions: Sub-acute repeat dose toxicity, beagle, Oral, Gavage/Intubation, dose end: 14 day, group: systemic
dog [14] = conditions: Chronic toxicity, beagle, Oral, Gavage/Intubation, dose end: 182 day, group: systemic, systemic / in life observation / clinical signs / defecation (diarrhea) + systemic / in life observation / clinical signs / feces
[15] = systemic / pathology microscopic / blood / lymphoma malignant + systemic / pathology microscopic / kidney / hemosiderosis + systemic / …
[16] = systemic / pathology microscopic / blood / lymphoma malignant + systemic / pathology microscopic / liver / hematopoietic cell proliferation…
[17] = systemic / hematology / erythrocyte (rbc) count differential / erythrocyte (rbc) + systemic / hematology / hematocrit (hct) / hematocrit (…
[18] = systemic / hematology / hematocrit (hct) / hematocrit (hct) + systemic / pathology microscopic / spleen / hematopoietic cell proliferation…
[19] = group: maternal, reproductive / reproductive performance / estrous cycle / absent corpora lutea
[20] = group: systemic, systemic / clinical chemistry / alkaline phosphatase (alp/alk) / alkaline phosphatase (alp/alk) + systemic / hematology / mean corpuscular (…
[21] = group: systemic, systemic / hematology / mean corpuscular (cell) volume (mcv) / mean corpuscular (cell) volume (mcv) + systemic / hematology / mean …
[22] = systemic / in life observation / clinical signs / abnormal feces
[23] = systemic / in life observation / clinical signs / abnormal feces + systemic / in life observation / body weight / body weight + systemic / …
[24] = group: reproductive, reproductive / reproductive performance / estrous cycle / absent corpora lutea
[25] = group: systemic, systemic / hematology / erythrocyte (rbc) count differential / erythrocyte (rbc) + systemic / in life observation / body weight / body …
[26] = systemic / clinical chemistry / albumin / albumin + systemic / clinical chemistry / protein / protein + systemic / hematology / erythrocyte…
[27] = systemic / in life observation / body weight / body weight
[28] = systemic / clinical chemistry / cholesterol / cholesterol + systemic / clinical chemistry / triglycerides / triglycerides + systemic / …
[29] = systemic / in life observation / clinical signs / defecation (diarrhea) + systemic / in life observation / clinical signs / delayed sexual …
[30] = systemic / in life observation / body weight / body weight + systemic / in life observation / clinical signs / defecation (diarrhea) + …
[31] = systemic / pathology gross / oral mucosa / discolored

How did the LEL (rat [1]) turn out when `NC(=O)CCCCC(N)=O` [Adipamide] was run?
Its LEL is 1200 mg/kg/day.

And the LOAEL (rat [1])?
The LOAEL was greater than 1200 mg/kg/day.

What about the NEL (rat [1]) of the same molecule?
The NEL was less than 1200 mg/kg/day.

What about the NOAEL (rat [1]) of the same molecule?
The NOAEL was no less than 1200 mg/kg/day.

And the LEL (mouse [2])?
The LEL was 3600 mg/kg/day.

What about the LOAEL (mouse [2]) of the same molecule?
The LOAEL was greater than 3600 mg/kg/day.

What about the NEL (mouse [2]) of the same molecule?
Its NEL is less than 3600 mg/kg/day.

And the NOAEL (mouse [2])?
The NOAEL was no less than 3600 mg/kg/day.

How did the LOAEL (mouse [3]; [15]) turn out when `Cl.Nc1ccc(Cl)cc1` [4-Chloroaniline hydrochloride] was run?
Its LOAEL is greater than 30 mg/kg/day.

What about the NOAEL (mouse [3]; [15]) of the same molecule?
The NOAEL was no less than 30 mg/kg/day.

And the LEL (mouse [3]; [16])?
Its LEL is 3 mg/kg/day.

What about the NEL (mouse [3]; [16]) of the same molecule?
The NEL was less than 3 mg/kg/day.

What about the LEL (rat [4]) of the same molecule?
Its LEL is 2 mg/kg/day.

And the LOAEL (rat [4])?
Its LOAEL is 6 mg/kg/day.

And the NEL (rat [4])?
Its NEL is less than 2 mg/kg/day.

And the NOAEL (rat [4])?
Its NOAEL is 2 mg/kg/day.

And the LOAEL (mouse [5]; [17])?
Its LOAEL is 15 mg/kg/day.

What about the NOAEL (mouse [5]; [17]) of the same molecule?
The NOAEL was 7.5 mg/kg/day.

What about the LEL (mouse [5]; [18]) of the same molecule?
The LEL was 7.5 mg/kg/day.

And the NEL (mouse [5]; [18])?
Its NEL is less than 7.5 mg/kg/day.

What about the LEL (rat [6]) of the same molecule?
Its LEL is 5 mg/kg/day.

And the LOAEL (rat [6])?
The LOAEL was greater than 80 mg/kg/day.

And the NEL (rat [6])?
Its NEL is less than 5 mg/kg/day.

And the NOAEL (rat [6])?
The NOAEL was no less than 80 mg/kg/day.

What does the source list for `CNC(=O)c1ccccc1Sc1ccc2c(/C=C/c3ccccn3)n[nH]c2c1` [Axitinib]?
LEL (mouse [7]; [19]): 125 mg/kg/day; LOAEL (mouse [7]; [19]): > 125 mg/kg/day; NEL (mouse [7]; [19]): 15 mg/kg/day; NOAEL (mouse [7]; [19]): ≥ 125 mg/kg/day; LOAEL (mouse [7]; [20]): > 125 mg/kg/day; NEL (mouse [7]; [20]): 5 mg/kg/day; NOAEL (mouse [7]; [20]): ≥ 125 mg/kg/day; LEL (mouse [7]; [21]): 15 mg/kg/day; LEL (dog [8]; [22]): 1 mg/kg/day; NEL (dog [8]; [22]): < 1 mg/kg/day; LOAEL (dog [8]; [23]): > 5 mg/kg/day; NOAEL (dog [8]; [23]): ≥ 5 mg/kg/day; LEL (mouse [9]; [24]): 5 mg/kg/day; LOAEL (mouse [9]; [24]): > 125 mg/kg/day; NEL (mouse [9]; [24]): < 5 mg/kg/day; NOAEL (mouse [9]; [24]): ≥ 125 mg/kg/day; LOAEL (mouse [9]; [25]): > 125 mg/kg/day; NEL (mouse [9]; [25]): 5 mg/kg/day; NOAEL (mouse [9]; [25]): ≥ 125 mg/kg/day; LEL (mouse [9]; group: systemic, systemic / hematology / erythrocyte (rbc) count differential / erythrocyte (rbc) + systemic / in life observation / clinical signs / poor …): 15 mg/kg/day; LOAEL (mouse [10]; [26]): > 250 mg/kg/day; NOAEL (mouse [10]; [26]): ≥ 250 mg/kg/day; LEL (mouse [10]; [27]): 25 mg/kg/day; NEL (mouse [10]; [27]): < 25 mg/kg/day; LOAEL (dog [11]; [28]): > 50 mg/kg/day; NOAEL (dog [11]; [28]): ≥ 50 mg/kg/day; LEL (dog [11]; [29]): 5 mg/kg/day; NEL (dog [11]; [29]): < 5 mg/kg/day; LEL (mouse [12]; [19]): 125 mg/kg/day; LOAEL (mouse [12]; [19]): > 125 mg/kg/day; NEL (mouse [12]; [19]): 15 mg/kg/day; NOAEL (mouse [12]; [19]): ≥ 125 mg/kg/day; LOAEL (mouse [12]; [20]): > 125 mg/kg/day; NEL (mouse [12]; [20]): 5 mg/kg/day; NOAEL (mouse [12]; [20]): ≥ 125 mg/kg/day; LEL (mouse [12]; [21]): 15 mg/kg/day; LOAEL (dog [13]; [30]): > 150 mg/kg/day; NOAEL (dog [13]; [30]): ≥ 150 mg/kg/day; LEL (dog [13]; [31]): 12 mg/kg/day; NEL (dog [13]; [31]): < 12 mg/kg/day; LEL (dog [14]): 1 mg/kg/day; LOAEL (dog [14]): > 5 mg/kg/day; NEL (dog [14]): < 1 mg/kg/day; NOAEL (dog [14]): ≥ 5 mg/kg/day
